Assay results from US9993494B2, “Compositions and methods for treating fibrotic disease” (eFFECTOR Therapeutics, Inc., priority 2014, dated 2018).

System: normal human lung fibroblasts
Assay: Ribosomal profiling: translational efficiency in TGFβ-treated fibroblasts
Format: cell-based
Settings: TGFβ-treated fibroblasts
Procedure: Ribosomal profiling allows for measurement of changes in transcription and translation on a genome-wide basis accompanying TGFβ-dependent transformation of fibroblasts to myofibroblasts. Ribosomal profiles of the TGFβ-treated fibroblasts from Example 1 (about 6×10^6 cells/10 cm plate) were prepared and analyzed for changes in translational efficiencies with respect to potential disease-associated cellular changes accompanying this TGFβ-induced transformation.
Briefly, cells were washed with cold PBS supplemented with cycloheximide and lysed with 1× mammalian cell lysis buffer for 10 minutes on ice. Lysates were clarified by centrifugation for 10 minutes at 14,000 rpm and supernatants were collected. Cell lysates were processed to generate ribosomal protected fragments and total mRNA according to the instructions included with the ARTseq Ribosome Profiling Kit (Illumina, San Diego, Calif.). Sequencing of total RNA (RNA) and of ribosome-protected fragments of RNA (RPF) was carried out using RNA-Seq methodology according to the manufacturer's instructions (Illumina). To analyze the ribosomal profiles, RNA-Seq reads were processed with tools from the FASTX-Toolkit (fastq_quality_trimmer, fastx_clipper and fastx_trimmer). Unprocessed and processed reads were evaluated for a variety of quality measures using FastQC, and processed reads were mapped to the human genome using TopHat (see, e.g., Trapnell et al., Bioinformatics 25:1105, 2009). Gene-by-gene assessment of the number of fragments strictly and uniquely mapping to the coding region of each gene was conducted using HTSeq-count, a component of the HTSeq package. […] Genes with low counts in either RPF or RNA were excluded from differential analyses. Pathway and network analyses of differential data were conducted using Ingenuity Pathway Analysis (IPA).

Structure (SMILES): CC(C)n1nc(-c2cc3cc(O)ccc3[nH]2)c2c(N)ncnc21 [PP242]
- effect in renormalizing the translational profile of the gene (gene RPS6KA5 (ENSG00000100784)): + (+ = 0.9 to 1.5)
- effect in renormalizing the translational profile of the gene (gene RPS7 (ENSG00000171863)): − (− = <0.9)
- effect in renormalizing the translational profile of the gene (gene RPS8 (ENSG00000142937)): − (− = <0.9)
- effect in renormalizing the translational profile of the gene (gene RPS9 (ENSG00000170889)): − (− = <0.9)
- effect in renormalizing the translational profile of the gene (gene RPS10 (ENSG00000124614)): − (− = <0.9)
- effect in renormalizing the translational profile of the gene (gene RPS11 (ENSG00000142534)): − (− = <0.9)
- effect in renormalizing the translational profile of the gene (gene RPS12 (ENSG00000112306)): − (− = <0.9)
- effect in renormalizing the translational profile of the gene (gene RPS13 (ENSG00000110700)): − (− = <0.9)
- effect in renormalizing the translational profile of the gene (gene RPS14 (ENSG00000164587)): − (− = <0.9)
- effect in renormalizing the translational profile of the gene (gene RPS15 (ENSG00000115268)): + (+ = 0.9 to 1.5)
- effect in renormalizing the translational profile of the gene (gene RPS15A (ENSG00000134419)): + (+ = 0.9 to 1.5)
- effect in renormalizing the translational profile of the gene (gene RPS16 (ENSG00000105193)): − (− = <0.9)
- effect in renormalizing the translational profile of the gene (gene RPS18 (ENSG00000231500)): + (+ = 0.9 to 1.5)
- effect in renormalizing the translational profile of the gene (gene RPS19 (ENSG00000105372)): − (− = <0.9)
- effect in renormalizing the translational profile of the gene (gene RPS20 (ENSG00000008988)): − (− = <0.9)
- effect in renormalizing the translational profile of the gene (gene RPS21 (ENSG00000171858)): − (− = <0.9)
- effect in renormalizing the translational profile of the gene (gene RPS23 (ENSG00000186468)): − (− = <0.9)
- effect in renormalizing the translational profile of the gene (gene RPS24 (ENSG00000138326)): − (− = <0.9)
- effect in renormalizing the translational profile of the gene (gene RPS25 (ENSG00000118181)): − (− = <0.9)
- effect in renormalizing the translational profile of the gene (gene RPS26 (ENSG00000197728)): − (− = <0.9)
- effect in renormalizing the translational profile of the gene (gene RPS27 (ENSG00000177954)): − (− = <0.9)
- effect in renormalizing the translational profile of the gene (gene RPS27A (ENSG00000143947)): − (− = <0.9)
- effect in renormalizing the translational profile of the gene (gene RPS28 (ENSG00000233927)): + (+ = 0.9 to 1.5)
- effect in renormalizing the translational profile of the gene (gene RPS29 (ENSG00000213741)): + (+ = 0.9 to 1.5)
- effect in renormalizing the translational profile of the gene (gene RPSA (ENSG00000168028)): − (− = <0.9)
- effect in renormalizing the translational profile of the gene (gene RTN2 (ENSG00000125744)): − (− = <0.9)
- effect in renormalizing the translational profile of the gene (gene SEMA3A (ENSG00000075213)): − (− = <0.9)
- effect in renormalizing the translational profile of the gene (gene SGIP1 (ENSG00000118473)): − (− = <0.9)
- effect in renormalizing the translational profile of the gene (gene SH3BGR (ENSG00000185437)): − (− = <0.9)
- effect in renormalizing the translational profile of the gene (gene SHC3 (ENSG00000148082)): − (− = <0.9)
- effect in renormalizing the translational profile of the gene (gene SLC2A12 (ENSG00000146411)): − (− = <0.9)
- effect in renormalizing the translational profile of the gene (gene SLC7A7 (ENSG00000155465)): − (− = <0.9)
- effect in renormalizing the translational profile of the gene (gene SLC15A3 (ENSG00000110446)): − (− = <0.9)
- effect in renormalizing the translational profile of the gene (gene SLC25A6 (ENSG00000169100)): − (− = <0.9)
- effect in renormalizing the translational profile of the gene (gene SLC40A1 (ENSG00000138449)): − (− = <0.9)
- effect in renormalizing the translational profile of the gene (gene SMO (ENSG00000128602)): − (− = <0.9)
- effect in renormalizing the translational profile of the gene (gene SNRPA (ENSG00000077312)): − (− = <0.9)
- effect in renormalizing the translational profile of the gene (gene SOX5 (ENSG00000134532)): − (− = <0.9)
- effect in renormalizing the translational profile of the gene (gene SOX6 (ENSG00000110693)): − (− = <0.9)
- effect in renormalizing the translational profile of the gene (gene SPATA6 (ENSG00000132122)): + (+ = 0.9 to 1.5)
- effect in renormalizing the translational profile of the gene (gene STAMBPL1 (ENSG00000138134)): − (− = <0.9)
- effect in renormalizing the translational profile of the gene (gene STS (ENSG00000101846)): − (− = <0.9)
- effect in renormalizing the translational profile of the gene (gene SYNE2 (ENSG00000054654)): − (− = <0.9)
- effect in renormalizing the translational profile of the gene (gene TAF1D (ENSG00000166012)): − (− = <0.9)
- effect in renormalizing the translational profile of the gene (gene TDG (ENSG00000139372)): − (− = <0.9)
- effect in renormalizing the translational profile of the gene (gene TEN1 (ENSG00000257949)): − (− = <0.9)
- effect in renormalizing the translational profile of the gene (gene TET2 (ENSG00000168769)): − (− = <0.9)
- effect in renormalizing the translational profile of the gene (gene TET3 (ENSG00000187605)): − (− = <0.9)
- effect in renormalizing the translational profile of the gene (gene TGFBI (ENSG00000120708)): − (− = <0.9)
- effect in renormalizing the translational profile of the gene (gene THBS3 (ENSG00000169231)): + (+ = 0.9 to 1.5)
- effect in renormalizing the translational profile of the gene (gene THG1L (ENSG00000113272)): − (− = <0.9)
- effect in renormalizing the translational profile of the gene (gene TIMM9 (ENSG00000100575)): − (− = <0.9)
- effect in renormalizing the translational profile of the gene (gene TKT (ENSG00000163931)): − (− = <0.9)
- effect in renormalizing the translational profile of the gene (gene TMTC1 (ENSG00000133687)): − (− = <0.9)
- effect in renormalizing the translational profile of the gene (gene TOMM7 (ENSG00000196683)): − (− = <0.9)
- effect in renormalizing the translational profile of the gene (gene TOP2A (ENSG00000131747)): − (− = <0.9)
- effect in renormalizing the translational profile of the gene (gene TPGS1 (ENSG00000141933)): − (− = <0.9)
- effect in renormalizing the translational profile of the gene (gene TPM2 (ENSG00000198467)): − (− = <0.9)
- effect in renormalizing the translational profile of the gene (gene TPT1 (ENSG00000133112)): − (− = <0.9)
- effect in renormalizing the translational profile of the gene (gene TRERF1 (ENSG00000124496)): − (− = <0.9)
- effect in renormalizing the translational profile of the gene (gene UBA52 (ENSG00000221983)): − (− = <0.9)
- effect in renormalizing the translational profile of the gene (gene UQCRB (ENSG00000156467)): − (− = <0.9)
- effect in renormalizing the translational profile of the gene (gene UTRN (ENSG00000152818)): − (− = <0.9)
- effect in renormalizing the translational profile of the gene (gene VIM (ENSG00000026025)): − (− = <0.9)
- effect in renormalizing the translational profile of the gene (gene ZNF581 (ENSG00000171425)): − (− = <0.9)
- effect in renormalizing the translational profile of the gene (gene ZNF608 (ENSG00000168916)): − (− = <0.9)
